According to PubChem BioAssay (NCI):
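Test compounds were applied to cells in 96-well plates for 48 hours at 5 doses. GI50 marks 50% less growth. TGI: total growth inhibition.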

Legend:
Assay in all cases: NCI anticancer screen, dose series, 48 h; in the data active = GI50 below about 0.43 µM; inactive = the rest
NCI-H23 lung = system: NCI-H23 lung
NCI-H460 lung = system: NCI-H460 lung
NCI-H522 lung = system: NCI-H522 lung
NCI/ADR-RES ovarian = system: NCI/ADR-RES ovarian
OVCAR-3 ovarian = system: OVCAR-3 ovarian
OVCAR-4 ovarian = system: OVCAR-4 ovarian
OVCAR-5 ovarian = system: OVCAR-5 ovarian
OVCAR-8 ovarian = system: OVCAR-8 ovarian
PC-3 prostate = system: PC-3 prostate
RPMI-8226 leukemia = system: RPMI-8226 leukemia
RXF 393 renal = system: RXF 393 renal
SF-268 CNS = system: SF-268 CNS
SF-295 CNS = system: SF-295 CNS
SF-539 CNS = system: SF-539 CNS
SK-MEL-2 melanoma = system: SK-MEL-2 melanoma
SK-MEL-28 melanoma = system: SK-MEL-28 melanoma
SK-MEL-5 melanoma = system: SK-MEL-5 melanoma
SK-OV-3 ovarian = system: SK-OV-3 ovarian
SN12C renal = system: SN12C renal
SNB-19 CNS = system: SNB-19 CNS
SNB-75 CNS = system: SNB-75 CNS
SR leukemia = system: SR leukemia
SW-620 colon = system: SW-620 colon
T-47D breast = system: T-47D breast
TK-10 renal = system: TK-10 renal
U251 CNS = system: U251 CNS
UACC-257 melanoma = system: UACC-257 melanoma
UACC-62 melanoma = system: UACC-62 melanoma
UO-31 renal = system: UO-31 renal

COc1ccc(-c2cc3c(N)ncnc3o2)cc1
inactive: GI50 (NCI-H23 lung) > 25 µM | GI50 (NCI-H460 lung) > 25 µM | GI50 (NCI-H522 lung) > 25 µM | GI50 (NCI/ADR-RES ovarian) > 25 µM | GI50 (OVCAR-3 ovarian) > 25 µM | GI50 (OVCAR-4 ovarian) > 25 µM | GI50 (OVCAR-5 ovarian) > 25 µM | GI50 (OVCAR-8 ovarian) > 25 µM | GI50 (PC-3 prostate) > 25 µM | GI50 (RPMI-8226 leukemia) > 25 µM | GI50 (RXF 393 renal) > 25 µM | GI50 (SF-268 CNS) 21.3 µM | GI50 (SF-295 CNS) > 25 µM | GI50 (SF-539 CNS) > 25 µM | GI50 (SK-MEL-2 melanoma) > 25 µM | GI50 (SK-MEL-28 melanoma) > 25 µM | GI50 (SK-MEL-5 melanoma) > 22.4 µM | GI50 (SK-OV-3 ovarian) > 25 µM | GI50 (SN12C renal) 14.8 µM | GI50 (SNB-19 CNS) > 25 µM | GI50 (SNB-75 CNS) 24.9 µM | GI50 (SR leukemia) > 25 µM | GI50 (SW-620 colon) > 25 µM | GI50 (T-47D breast) > 25 µM | GI50 (TK-10 renal) 9.44 µM | GI50 (U251 CNS) > 25 µM | GI50 (UACC-257 melanoma) > 25 µM | GI50 (UACC-62 melanoma) 5.72 µM | GI50 (UO-31 renal) 12.4 µM
> 25 µM: TGI (NCI-H23 lung) | TGI (NCI-H460 lung) | TGI (NCI-H522 lung) | TGI (NCI/ADR-RES ovarian) | TGI (OVCAR-3 ovarian) | TGI (OVCAR-4 ovarian) | TGI (OVCAR-5 ovarian) | TGI (OVCAR-8 ovarian) | TGI (PC-3 prostate) | TGI (RPMI-8226 leukemia) | TGI (RXF 393 renal) | TGI (SF-268 CNS) | TGI (SF-295 CNS) | TGI (SF-539 CNS) | TGI (SK-MEL-2 melanoma) | TGI (SK-MEL-28 melanoma) | TGI (SK-MEL-5 melanoma) | TGI (SK-OV-3 ovarian) | TGI (SN12C renal) | TGI (SNB-19 CNS) | TGI (SNB-75 CNS) | TGI (SR leukemia) | TGI (SW-620 colon) | TGI (T-47D breast) | TGI (TK-10 renal) | TGI (U251 CNS) | TGI (UACC-257 melanoma) | TGI (UACC-62 melanoma) | TGI (UO-31 renal)
